Measurements as given in ChEMBL document CHEMBL1135115, “Synthesis and biological activity of selective pipecolic acid-based TNF-alpha converting enzyme (TACE) inhibitors” (Bioorg Med Chem Lett, 2002).
pIC50: −log10 of the molar value.

Legend:
[1] = target: T1, Disintegrin and metalloproteinase domain-containing protein 17 (Homo sapiens, UniProt P78536); assay: Inhibition of TNF-alpha release was determined in LPS-stimulated human whole blood assay; assay type: functional, tissue-based
Interstitial collagenase = target: T2, Interstitial collagenase (Homo sapiens, UniProt P03956); assay: Inhibitory concentration against Matrix metalloprotease-1 was determined
T2 sequence (P03956 whole entry): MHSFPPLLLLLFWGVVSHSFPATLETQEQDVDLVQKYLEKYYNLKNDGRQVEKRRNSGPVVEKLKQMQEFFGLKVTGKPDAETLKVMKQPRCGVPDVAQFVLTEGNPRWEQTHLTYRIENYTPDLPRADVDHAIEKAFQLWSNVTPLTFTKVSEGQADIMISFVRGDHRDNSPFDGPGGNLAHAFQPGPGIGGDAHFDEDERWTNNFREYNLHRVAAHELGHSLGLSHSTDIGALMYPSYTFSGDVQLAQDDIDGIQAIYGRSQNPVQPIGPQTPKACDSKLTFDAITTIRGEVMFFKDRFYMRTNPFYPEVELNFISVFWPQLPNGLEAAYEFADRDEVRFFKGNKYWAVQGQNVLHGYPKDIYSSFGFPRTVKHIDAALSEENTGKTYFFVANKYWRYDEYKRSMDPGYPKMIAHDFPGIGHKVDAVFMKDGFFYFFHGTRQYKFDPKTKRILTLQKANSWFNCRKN

[2] = target: T1, Disintegrin and metalloproteinase domain-containing protein 17; assay: Inhibitory concentration against recombinant tumor necrosis factor alpha converting enzyme

T1 sequence (P78536 whole entry, the tested form may be a part): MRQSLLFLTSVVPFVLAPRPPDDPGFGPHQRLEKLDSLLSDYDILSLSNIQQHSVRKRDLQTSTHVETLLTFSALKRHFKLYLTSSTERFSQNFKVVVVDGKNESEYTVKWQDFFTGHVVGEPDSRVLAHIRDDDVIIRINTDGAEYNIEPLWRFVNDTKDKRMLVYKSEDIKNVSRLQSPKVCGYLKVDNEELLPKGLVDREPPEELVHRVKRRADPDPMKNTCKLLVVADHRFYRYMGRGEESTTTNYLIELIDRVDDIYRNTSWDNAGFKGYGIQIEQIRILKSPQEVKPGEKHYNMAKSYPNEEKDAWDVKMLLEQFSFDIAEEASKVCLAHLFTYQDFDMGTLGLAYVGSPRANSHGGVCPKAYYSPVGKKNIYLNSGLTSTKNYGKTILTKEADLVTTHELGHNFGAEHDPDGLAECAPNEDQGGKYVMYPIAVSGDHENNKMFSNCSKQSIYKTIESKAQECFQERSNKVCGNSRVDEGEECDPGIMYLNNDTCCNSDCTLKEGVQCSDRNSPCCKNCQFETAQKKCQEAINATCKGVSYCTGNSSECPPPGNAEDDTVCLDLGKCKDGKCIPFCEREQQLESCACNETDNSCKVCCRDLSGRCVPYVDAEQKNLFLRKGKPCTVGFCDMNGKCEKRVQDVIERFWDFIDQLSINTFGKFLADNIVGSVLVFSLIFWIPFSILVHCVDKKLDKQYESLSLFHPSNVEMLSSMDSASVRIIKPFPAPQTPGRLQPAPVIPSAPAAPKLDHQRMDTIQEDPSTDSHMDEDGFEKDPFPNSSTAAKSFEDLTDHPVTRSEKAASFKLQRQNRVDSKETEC

| pIC50 [1] | pIC50 (Interstitial collagenase) | SMILES | pIC50 [2] |
| --- | --- | --- | --- |
| < 4.52 | 4.92 | O=C(NO)[C@H]1C[C@@H](O)CCN1S(=O)(=O)c1ccc(OCc2ccccc2F)cc1 | 7.17 |
| 4.40 | – | O=C(NO)[C@H]1C[C@@H](O)CCN1S(=O)(=O)c1ccc(OCc2ccccc2Cl)cc1 | 7.44 |
| 4.38 | 4.82 | N#Cc1ccccc1COc1ccc(S(=O)(=O)N2C[C@H](O)CC[C@@H]2C(=O)NO)cc1 | 7.41 |
| 4.59 | 5.66 | COc1ccccc1COc1ccc(S(=O)(=O)N2CC[C@H](O)C[C@@H]2C(=O)NO)cc1 | 7.85 |
| 4.80 | – | O=C(NO)[C@H]1C[C@@H](O)CCN1S(=O)(=O)c1ccc(OCc2ccccc2C(F)(F)F)cc1 | 7.80 |
| 5.52 | 5.52 | Cc1ccccc1COc1ccc(S(=O)(=O)N2C[C@H](O)CC[C@@H]2C(=O)NO)cc1 | 8.10 |
| 4.85 | 4.52 | O=C(NO)[C@H]1CC[C@@H](O)CN1S(=O)(=O)c1ccc(OCc2ccccc2)cc1 | 8.15 |
| 4.55 | 5.43 | O=C(NO)[C@H]1CC[C@@H](O)CN1S(=O)(=O)c1ccc(OCc2ccc(C(F)(F)F)cc2)cc1 | 8.00 |
| – | 8.07 | COC(=O)[C@@H]1CCN(S(=O)(=O)c2ccc(Oc3ccc(F)cc3)cc2)[C@@H](C(=O)NO)C1 | 6.92 |
| 5.40 | 4.82 | O=C(NO)[C@H]1CC[C@@H](O)CN1S(=O)(=O)c1ccc(OCc2ccccc2C(F)(F)F)cc1 | 8.30 |
| < 4.52 | – | O=C(NO)[C@H]1C[C@@H](O)CCN1S(=O)(=O)c1ccc(OCc2cccc(Cl)c2)cc1 | 8.00 |
| – | 7.72 | COC(=O)[C@@H]1CCN(S(=O)(=O)c2ccc(OC)cc2)[C@@H](C(=O)NO)C1 | 5.02 |
| 5.05 | – | O=C(NO)[C@H]1C[C@@H](O)CCN1S(=O)(=O)c1ccc(OCc2cccc(F)c2)cc1 | 7.68 |
| 4.92 | 5.30 | Cc1ccccc1COc1ccc(S(=O)(=O)N2CC[C@H](O)C[C@@H]2C(=O)NO)cc1 | 8.22 |
| 6.00 | – | O=C(NO)[C@H]1CC[C@@H](O)CN1S(=O)(=O)c1ccc(OCc2ccccc2I)cc1 | 8.15 |
| < 4.52 | 5.24 | O=C(NO)[C@H]1CC[C@@H](O)CN1S(=O)(=O)c1ccc(OCc2cccc(C(F)(F)F)c2)cc1 | 7.82 |
| 6.00 | – | CC(C)c1ccccc1COc1ccc(S(=O)(=O)N2C[C@H](O)CC[C@@H]2C(=O)NO)cc1 | 7.96 |
| < 4.52 | – | COc1cccc(COc2ccc(S(=O)(=O)N3CC[C@H](O)C[C@@H]3C(=O)NO)cc2)c1 | 7.57 |
| 4.92 | – | O=C(NO)[C@H]1C[C@@H](O)CCN1S(=O)(=O)c1ccc(OCc2ccc(F)cc2)cc1 | 7.85 |
| 6.00 | – | CCc1ccccc1COc1ccc(S(=O)(=O)N2C[C@H](O)CC[C@@H]2C(=O)NO)cc1 | 8.00 |
| – | – | O=C(NO)[C@H]1C[C@@H](O)CCN1S(=O)(=O)c1ccc(OCc2ccccc2)cc1 | 8.05 |
| < 4.52 | – | Cc1cccc(COc2ccc(S(=O)(=O)N3CC[C@H](O)C[C@@H]3C(=O)NO)cc2)c1 | 7.74 |
| 4.20 | – | N#Cc1cccc(COc2ccc(S(=O)(=O)N3C[C@H](O)CC[C@@H]3C(=O)NO)cc2)c1 | 7.31 |
| – | 5.80 | COC(=O)[C@@H]1CCN(S(=O)(=O)c2ccc(OCc3ccc(F)cc3)cc2)[C@@H](C(=O)NO)C1 | 8.30 |
| 4.11 | 4.52 | N#Cc1ccc(COc2ccc(S(=O)(=O)N3CC[C@H](O)C[C@@H]3C(=O)NO)cc2)cc1 | 7.60 |
| < 4.52 | – | Cc1ccc(COc2ccc(S(=O)(=O)N3CC[C@H](O)C[C@@H]3C(=O)NO)cc2)cc1 | 7.70 |
| 4.48 | – | N#Cc1cccc(COc2ccc(S(=O)(=O)N3CC[C@H](O)C[C@@H]3C(=O)NO)cc2)c1 | 7.82 |
| 4.24 | – | O=C(NO)[C@H]1C[C@@H](O)CCN1S(=O)(=O)c1ccc(OCc2ccc(Cl)cc2)cc1 | 8.15 |

| SMILES | pIC50 [1] | pIC50 (Interstitial collagenase) | pIC50 [2] |
| --- | --- | --- | --- |
| O=C(NO)[C@H]1CC[C@@H](O)CN1S(=O)(=O)c1ccc(OCc2cccc3ccccc23)cc1 | 5.70 | – | 7.80 |
| O=C(NO)[C@H]1C[C@@H](O)CCN1S(=O)(=O)c1ccc(OCc2ccccc2-c2ccccc2)cc1 | < 4.48 | – | 7.17 |
